Assay [1] addresses T1, BRD4-2 (Homo sapiens, UniProt O60885).
T1 construct: made in house; host or cells: Escherichia coli
As to the kind of experiment: BRD4-2 Ligand KI assay (TR-FRET, Cy5 labeled probe displacement). The assay is classed as binding. How it is done:
(§1) Binding of the two tandem bromodomains, BRD4-I and BRD4-2, to a Cy5 labeled probe/ligand (Compound 1020-501) were measured using a homogeneous time resolved fluorescence resonance energy transfer (TR-FRET) assay.
(§2) The labeled ligand specifically binds BRD4-1 and BRD4-2 and can be displaced by a small molecule inhibitor that shares a similar or overlapping binding site. BRD4-I and BRD4-2 were expressed and purified from Escherichia coli as N-terminal His6-tagged proteins. A Eu-cryptate labeled anti-His antibody (Perkin Elmer) was used to specifically bind BRD4. […] Assays were performed in 50 mM Hepes (pH 7.5), 150 mM NaCl, 0.1 mg/ml BSA, 0.01% (v/v) Brij, 0.5% (v/v) DMSO and 1.0 nM labeled ligand at the following concentrations for each BRD4 isoform: 2 nM BRD4-1 and 0.5 nM BRD4-2. After an assay reaction time of 60 minutes at 25° C., binding was measured with 2 nM Eu-cryptate labeled anti-His antibody. TR-FRET signal was detected on an Envision plate reader (Ex: 320 nm; Em: 615/665 nm; 100 μs delay and 200 μs read window). […] All IC50 values represent geometric mean values of a minimum of four determinations. The IC50 values were converted to Ki values (dissociation constant for BRD4-inhibitor complex) using the Cheng and Prusoff equation for a competitive inhibitor mode of action. These assays generally produced results within 3-fold of the reported mean.
For orientation: TR-FRET usually uses a lanthanide donor and a delayed reading to cut background.

The target of assay [2] is T2, BRD4-1 (Homo sapiens, UniProt O60885).
T2 construct: made in house; host or cells: Escherichia coli
As to the kind of experiment: BRD4-1 Ligand KI assay (TR-FRET, Cy5 labeled probe displacement). The assay is classed as binding. Here is the method: as §1, §2

In assay [3] the target is T1, BRD4-2. As to the kind of experiment: HTRF (TR-FRET) assay, BRD4-2 binding to acetylated histone H4 peptide. How it is done: (§3) Binding of the two tandem bromodomains, BRD4-1 and BRD4-2, to an acetylated histone H4 peptide was measured using a homogeneous time resolved fluorescence resonance energy transfer (TR-FRET) assay. […] BRD4-1 and BRD4-2 were expressed and purified from Escherichia coli as N-terminal His6-tagged proteins. An XL665 labeled anti-His antibody (Cisbio) was used to specifically bind BRD4 and a cryptate labeled streptavidin protein was used because it specifically recognized the biotinylated H4 peptide. […] After an assay reaction time of 60 minutes at 25° C., binding was measured with 2 nM crytptate labeled streptavidin and 10 nM anti-His-XL665 antibody. TR-FRET signal was detected on an Envision plate reader (Ex: 320 nm; Em: 615/665 nm; 100 us delay and 200 μs read window). […] All IC50 values represent geometric mean values of a minimum of four determinations.

Assay [4] addresses T2, BRD4-1. As to the kind of experiment: Alpha assay, BRD4-1 binding to acetylated histone H4 peptide. How it is done:
Binding of the bromodomain BRD4-I to an acetylated histone H4 peptide was measured using a bead-based Amplified Luminescent Proximity Homogeneous Assay (ALPHA). […] BRD4-I was expressed and purified from Escherichia coli as an N-terminal His6-tagged protein. Nickel-Chelate ALPHA acceptor beads (Perkin Elmer) were used to specifically bind BRD4-1 and ALPHA streptavidin donor beads (Perkin Elmer) were used because they specifically recognized the biotinylated H4 peptide. […] Assays were performed in 50 mM Hepes (pH 7.5), 150 mM NaCl, 0.1 mg/ml BSA, 0.01% (v/v) Brij, 0.5% (v/v) DMSO, 200 nM H4 peptide and 15 nM of BRD4-1 protein. After an assay reaction time of 60 minutes at 25° C., binding was measured with 20 μg/ml streptavidin donor beads and 20 μg/ml nickle-chelate acceptor beads. ALPHA signal was detected on an Envision plate reader (Ex: 320 nm; Em: 570 nm; Ex time: 180 ms). […] All IC50 values represent geometric mean values of a minimum of four determinations.

The target in assay [5] is T2, BRD4-1. As to the kind of experiment: HTRF (TR-FRET) assay, BRD4-1 binding to acetylated histone H4 peptide. How it is done: as §3
[6] abbreviates: 0.5 nM BRD4-2, 1.0 nM labeled ligand, 60 minutes at 25° C., read-out: BRD4-2 Ligand KI (IC50).
Setting [7] is: 2 nM BRD4-1, 1.0 nM labeled ligand, 60 minutes at 25° C., read-out: BRD4-1 Ligand KI (IC50).
[8] abbreviates: 120 nM BRD4-2, 200 nM H4 peptide, 60 minutes at 25° C., geometric mean of a minimum of four determinations, read-out: HTRF BRD4-2 (IC50).
Setting [9] is: 15 nM BRD4-1, 200 nM H4 peptide, 60 minutes at 25° C., geometric mean of a minimum of four determinations, read-out: Alpha Assay (IC50).
The mark [10] stands for this setting: 60 nM BRD4-1, 200 nM H4 peptide, 60 minutes at 25° C., geometric mean of a minimum of four determinations, read-out: HTRF BRD4-1 (IC50).

The term IC50 denotes the concentration needed to halve the response being measured. Turning to `Cc1noc(C)c1-c1cc(C(O)(c2ccccc2)c2cccnc2)c2nc(C3CC3)[nH]c2c1` (centres unmarked) [Compound 1020-112, (2-cyclopropyl-6-(3,5-dimethylisoxazol-4-yl)-1H-benzo[d]imidazol-4-yl)(phenyl)(pyridin-3-yl)methanol], the half-maximal inhibitory concentration (IC50) at BRD4-2 [1] (setting [6]) stood at 13.5 nM; at BRD4-1 [2] (setting [7]), 10.4 nM.

Turning to `Cc1noc(C)c1-c1cc(C(O)(c2ccccn2)c2ccccn2)c2nc(C3CC3)[nH]c2c1` [Compound 1020-104, (2-cyclopropyl-6-(3,5-dimethylisoxazol-4-yl)-1H-benzo[d]imidazol-4-yl)di(pyridin-2-yl)methanol], the IC50 is 11.7 nM on BRD4-2 [1] (setting [6]) and 7.2 nM at BRD4-1 [2] (setting [7]).

On to `Cc1noc(C)c1-c1cc(C(O)(c2ccccc2)c2ccccn2)c2nc(C3CC3)[nH]c2c1` (centres unmarked) [Compound 1020-113, (2-cyclopropyl-6-(3,5-dimethylisoxazol-4-yl)-1H-benzo[d]imidazol-4-yl)(phenyl)(pyridin-2-yl)methanol], for which the half-maximal inhibitory concentration (IC50) at BRD4-2 [1] (setting [6]) was 12.8 nM; on BRD4-1 [2] (setting [7]), 10.7 nM.

With `Cc1noc(C)c1-c1cc(C(O)(c2ncccn2)c2ccc(F)cc2F)c2nc(C3CC3)[nH]c2c1` (centres unmarked) [Compound 1020-257, (2-Cyclopropyl-6-(3,5-dimethylisoxazol-4-yl)-1H-benzo[d]imidazol-4-yl)(2,4-difluorophenyl)(pyrimidin-2-yl)methanol], the 50% inhibitory concentration (IC50) on BRD4-2 [1] (setting [6]) was 5.6 nM; at BRD4-1 [2] (setting [7]), 4.7 nM.

On to `Cc1noc(C)c1-c1cc(C(O)(c2ccccn2)c2ccccn2)c2nc(C3CC3)[nH]c2c1F` [Compound 1020-224, (2-cyclopropyl-6-(3,5-dimethylisoxazol-4-yl)-7-fluoro-1H-benzo[d]imidazol-4-yl)di(pyridin-2-yl)methanol], for which the IC50 at BRD4-2 [1] turned out to be 20.2 nM; on BRD4-1 [2], 10.8 nM.

`Cc1noc(C)c1-c1cc(C(O)(c2nccs2)c2nccs2)c2nc(C3CC3)[nH]c2c1` [Compound 1020-103, (2-cyclopropyl-6-(3,5-dimethylisoxazol-4-yl)-1H-benzo[d]imidazol-4-yl)di(thiazol-2-yl)methanol]: the values for the IC50 at BRD4-2 [1] (setting [6]) and on BRD4-1 [2] (setting [7]) were 12.4 nM and 4 nM, respectively.

Turning to `Cc1noc(C)c1-c1cc(C(C)c2ccc(F)cc2)c2[nH]c(C3CC3)nc2c1` (centres unmarked) [Compound 1020-44, 4-(2-Cyclopropyl-4-(1-(4-fluorophenyl)ethyl)-1H-benzo[d]imidazol-6-yl)-3,5-dimethylisoxazole], the IC50 at BRD4-2 [3] (setting [8]) amounted to 111 nM; on BRD4-1 [4] (setting [9]), 22 nM; on BRD4-1 [5] (setting [10]) it was 139 nM.

As for `CCC1CCC(=O)N1c1cc(-c2c(C)noc2C)cc2[nH]c(C3CC3)nc12` (centres unmarked) [Compound 1020-137, 1-(2-Cyclopropyl-6-(3,5-dimethylisoxazol-4-yl)-1H-benzo[d]imidazol-4-yl)-5-ethylpyrrolidin-2-one], the results for the IC50 at BRD4-2 [3] (setting [8]), on BRD4-1 [4] (setting [9]) and on BRD4-1 [5] (setting [10]) were 399 nM, 52.8 nM and 187 nM, respectively.

Turning to `Cc1ccnc(C)c1-c1cc(-c2c(C)noc2C)cc2[nH]cnc12` [Compound 1020-84, 4-(4-(2,4-Dimethylpyridin-3-yl)-1H-benzo[d]imidazol-6-yl)-3,5-dimethylisoxazole], the figures for the IC50 at BRD4-2 [3] (setting [8]), at BRD4-1 [4] (setting [9]) and at BRD4-1 [5] (setting [10]) were 234 nM, 277 nM and 481 nM, respectively.

In the case of `Cc1cccc(C(O)(c2cc(-c3c(C)noc3C)cc3[nH]c(C4CC4)nc23)C2CCCO2)n1` (racemic) [Compound 1020-114, (2-cyclopropyl-6-(3,5-dimethylisoxazol-4-yl)-1H-benzo[d]imidazol-4-yl)(6-methylpyridin-2-yl)(tetrahydrofuran-2-yl)methanol], the values for the IC50 at BRD4-2 [1] (setting [6]) and on BRD4-1 [2] (setting [7]) were 2.7 nM and 3.8 nM, respectively.

Consider `CCC(CC)c1cc(-c2c(C)noc2C)cc2[nH]c(C3CC3)nc12` [Compound 1020-120, 4-(2-Cyclopropyl-4-(pentan-3-yl)-1H-benzo[d]imidazol-6-yl)-3,5-dimethylisoxazole], for which the IC50 on BRD4-2 [3] is 76.1 nM; on BRD4-1 [4], 39.7 nM; on BRD4-1 [5], 88.5 nM.

Take `Cc1noc(C)c1-c1cc(-c2cccnc2-c2ccccc2)c2nc(C3CC3)[nH]c2c1` [Compound 1020-19, 4-(2-Cyclopropyl-4-(2-phenylpyridin-3-yl)-1H-benzo[d]imidazol-6-yl)-3,5-dimethylisoxazole]: the IC50 at BRD4-2 [3] (setting [8]) is 172 nM; at BRD4-1 [4] (setting [9]), 28 nM; on BRD4-1 [5] (setting [10]), 134 nM.

Turning to `Cc1ccc2ncccc2c1-c1cc(-c2c(C)noc2C)cc2nc(C3CC3)n(C)c12` [Compound 1020-74, 4-(2-Cyclopropyl-1-methyl-7-(6-methylquinolin-5-yl)-1H-benzo[d]imidazol-5-yl)-3,5-dimethylisoxazole], the 50% inhibitory concentration (IC50) was determined as 112 nM at BRD4-2 [3] (setting [8]), 18.9 nM on BRD4-1 [4] (setting [9]) and 97.1 nM on BRD4-1 [5] (setting [10]).
